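Results reflect a 48-hour exposure of cells in 96-well plates to compound at five concentrations. At the TGI there is no net growth.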
What was measured:
Experiment in all cases: inhibition of tumour cell growth, NCI panel, 48 h
[1] = tested on: SW-620 colon
[2] = tested on: DU-145 prostate
[3] = tested on: MCF7 breast
[4] = tested on: MALME-3M melanoma
[5] = tested on: A549 NSCLC
[6] = tested on: SK-MEL-28 melanoma
[7] = tested on: MOLT-4 leukemia
[8] = tested on: NCI-H460 lung
[9] = tested on: MDA-N
[10] = tested on: IGROV1 ovarian
[11] = tested on: U251 CNS
[12] = tested on: NCI-H23 lung
[13] = tested on: A498 renal
[14] = tested on: HCT-15 colon
[15] = tested on: EKVX NSCLC
[16] = tested on: NCI-H226 lung
[17] = tested on: SK-MEL-5 melanoma
[18] = tested on: UACC-257 melanoma
[19] = tested on: COLO 205 colon
[20] = tested on: LOX IMVI melanoma
[21] = tested on: SF-539 CNS
[22] = tested on: PC-3 prostate
[23] = tested on: BT-549 breast
[24] = tested on: UACC-62 melanoma
[25] = tested on: SNB-75 CNS
[26] = tested on: HCC-2998 colon
[27] = tested on: SNB-19 CNS
[28] = tested on: HCT-116 colon
[29] = tested on: SN12C renal
[30] = tested on: OVCAR-8 ovarian
[31] = tested on: HL-60(TB) leukemia
[32] = tested on: UO-31 renal
[33] = tested on: SF-295 CNS
[34] = tested on: MDA-MB-231 breast
[35] = tested on: HS 578T breast
[36] = tested on: HOP-62 NSCLC
[37] = tested on: RXF 393 renal
[38] = tested on: OVCAR-4 ovarian
[39] = tested on: KM12 colon
[40] = tested on: MDA-MB-435
[41] = tested on: HT29 colon
[42] = tested on: NCI-H522 lung
[43] = tested on: T-47D breast
[44] = tested on: TK-10 renal
[45] = tested on: SF-268 CNS
[46] = tested on: HOP-92 NSCLC
[47] = tested on: CCRF-CEM leukemia
[48] = tested on: M14 melanoma
[49] = tested on: ACHN renal
[50] = tested on: OVCAR-5 ovarian
[51] = tested on: CAKI-1 renal
[52] = tested on: SK-OV-3 ovarian
[53] = tested on: SK-MEL-2 melanoma
[54] = tested on: 786-0 renal
[55] = tested on: RPMI-8226 leukemia
[56] = tested on: NCI/ADR-RES ovarian
[57] = tested on: K-562 leukemia
[58] = tested on: OVCAR-3 ovarian

For `CC1=C(C)C(=O)C(C2=C(C3=CC(=O)C(C)=C(C)C3=O)C(=O)C(C)=C(C)C2=O)=CC1=O`, the TGI [1] was 13 µM, the TGI [2] was 30 µM and the TGI [3] was greater than 21.1 µM. It also gave a TGI [4] of 11.4 µM, a TGI [5] greater than 84.4 µM and a TGI [6] of 14 µM. The TGI [7] was greater than 100 µM, the TGI [8] was 29.6 µM and the TGI [9] was greater than 20.2 µM. The TGI [10] was 31.2 µM, the TGI [11] was greater than 38.2 µM and the TGI [12] was 43.1 µM. The TGI [13] was 21.5 µM, the TGI [14] was greater than 61.8 µM and the TGI [15] was greater than 70 µM. The TGI [16] was 31.8 µM, the TGI [17] was 5.85 µM and the TGI [18] was 28.4 µM. It also gave a TGI [19] of 8.07 µM, a TGI [20] greater than 21.3 µM and a TGI [21] of 4.99 µM. The TGI [22] was 16 µM, the TGI [23] was 21.6 µM and the TGI [24] was 25.9 µM. The TGI [25] was 33.3 µM, the TGI [26] was 28.6 µM and the TGI [27] was greater than 100 µM. It also gave a TGI [28] greater than 100 µM, a TGI [29] of 47.9 µM and a TGI [30] greater than 47.1 µM. It also gave a TGI [31] greater than 100 µM, a TGI [32] of 34.1 µM and a TGI [33] of 33.8 µM. It also gave a TGI [34] of 5.29 µM, a TGI [35] greater than 79.7 µM and a TGI [36] of 36.5 µM. The TGI [37] was 5.16 µM, the TGI [38] was 4.57 µM and the TGI [39] was 30.4 µM. The TGI [40] was 14.2 µM, the TGI [41] was 9.02 µM and the TGI [42] was 5.21 µM. It also gave a TGI [43] of 7.32 µM, a TGI [44] of 27 µM and a TGI [45] of 34.5 µM. The TGI [46] was greater than 51.2 µM, the TGI [47] was greater than 100 µM and the TGI [48] was greater than 40.7 µM. For the same compound, the TGI [49] was 18.3 µM, the TGI [50] was greater than 34.6 µM and the TGI [51] was 8.87 µM. It also gave a TGI [52] of 32.6 µM, a TGI [53] of 31 µM and a TGI [54] greater than 49.4 µM.

Work on `COc1ccc(Cc2c(N)[nH]c(=O)[nH]c2=O)cc1` yielded a TGI [1] greater than 100 µM, a TGI [4] greater than 100 µM and a TGI [5] greater than 100 µM. For the same compound, the TGI [6] was greater than 100 µM, the TGI [8] was greater than 100 µM and the TGI [9] was greater than 100 µM. For the same compound, the TGI [10] was greater than 100 µM, the TGI [11] was greater than 100 µM and the TGI [12] was greater than 100 µM. It also gave a TGI [13] greater than 100 µM, a TGI [14] greater than 100 µM and a TGI [15] greater than 100 µM. It also gave a TGI [16] greater than 100 µM, a TGI [17] greater than 100 µM and a TGI [18] greater than 100 µM. The TGI [19] was greater than 100 µM, the TGI [20] was greater than 100 µM and the TGI [21] was greater than 100 µM. It also gave a TGI [22] greater than 100 µM, a TGI [23] greater than 100 µM and a TGI [24] greater than 100 µM. It also gave a TGI [25] greater than 100 µM, a TGI [26] greater than 100 µM and a TGI [27] greater than 100 µM. It also gave a TGI [28] greater than 100 µM, a TGI [29] greater than 100 µM and a TGI [30] greater than 100 µM. The TGI [32] was greater than 100 µM, the TGI [33] was greater than 100 µM and the TGI [55] was greater than 100 µM. It also gave a TGI [34] greater than 100 µM, a TGI [35] greater than 100 µM and a TGI [36] greater than 100 µM. For the same compound, the TGI [37] was greater than 100 µM, the TGI [38] was greater than 100 µM and the TGI [39] was greater than 100 µM. The TGI [40] was greater than 100 µM, the TGI [41] was greater than 100 µM and the TGI [42] was greater than 100 µM. For the same compound, the TGI [43] was greater than 100 µM, the TGI [44] was greater than 100 µM and the TGI [45] was greater than 100 µM. For the same compound, the TGI [56] was greater than 100 µM, the TGI [46] was greater than 100 µM and the TGI [48] was greater than 100 µM. For the same compound, the TGI [49] was greater than 100 µM, the TGI [50] was greater than 100 µM and the TGI [51] was greater than 100 µM. The TGI [57] was greater than 100 µM, the TGI [52] was greater than 100 µM and the TGI [53] was greater than 100 µM. The TGI [58] was greater than 100 µM and the TGI [54] was greater than 100 µM.

`O=C1c2c(O)ccc(O)c2C(=O)c2c(NCCNC(=O)C(O)C(O)C(O)C(O)CO)ccc(NCCNC(=O)C(O)C(O)C(O)C(O)CO)c21` (stereo not drawn) was tested, and the TGI [2] was 0.254 µM, the TGI [3] was 0.243 µM and the TGI [4] was 2.65 µM. For the same compound, the TGI [5] was 1.53 µM, the TGI [8] was 0.0159 µM and the TGI [9] was 0.601 µM. The TGI [10] was 1.45 µM, the TGI [12] was 0.417 µM and the TGI [14] was 1.04 µM. The TGI [15] was 1.42 µM, the TGI [16] was 0.524 µM and the TGI [17] was 0.522 µM. It also gave a TGI [18] of 7.24 µM, a TGI [19] of 0.578 µM and a TGI [21] of 0.44 µM. It also gave a TGI [22] of 1.51 µM, a TGI [23] of 2.36 µM and a TGI [24] of 1.04 µM. The TGI [25] was 1.23 µM, the TGI [26] was 0.483 µM and the TGI [28] was 0.197 µM. The TGI [29] was 0.0118 µM, the TGI [30] was 0.528 µM and the TGI [31] was 0.0149 µM. The TGI [32] was 0.352 µM, the TGI [33] was 0.0291 µM and the TGI [55] was 0.202 µM. It also gave a TGI [34] of 0.633 µM, a TGI [35] of 2.7 µM and a TGI [36] of 1.13 µM. The TGI [37] was 0.812 µM, the TGI [38] was 0.771 µM and the TGI [39] was 0.534 µM. For the same compound, the TGI [41] was 0.399 µM, the TGI [42] was 0.218 µM and the TGI [43] was 2.35 µM. The TGI [44] was 1.37 µM, the TGI [45] was 1.98 µM and the TGI [56] was 2.24 µM. The TGI [48] was 1.39 µM, the TGI [49] was 0.101 µM and the TGI [50] was 1.88 µM. For the same compound, the TGI [52] was 1.41 µM, the TGI [53] was 2.88 µM and the TGI [58] was 2.29 µM. For the same compound, the TGI [54] was 0.0531 µM.

From PubChem BioAssay (NCI)
